Assays:
[1] = test system: NMM-II ATPase; settings: vertebrate cells; Straight et al. Science 2003; cited from earlier work
[2] = test system: MA-104 and PAM cells; assay: Effects of blebbistatin on cells (cytopathic effects, CPE); format: cell-based
[3] = test system: MA-104 and PAM cells; assay: as above; format: cell-based; settings: Table 4, Marc-145 and PAM cells
Procedure: Marc-145 and PAM cells (10^5 cells/ml) are cultured on DMEM medium (containing 100 U/ml penicillin, 50 μg/ml streptomycin sulphate, 50 μg/ml gentamycin and 10% calf serum) in an incubator under 37[…] and 5% CO2 to form monolayer. Dissolve (±)-blebbistatin, (S)-(−)-blebbistatin and (R)-(+)-blebbistatin (purchased from Tocris Cookson, Inc. [US]) in DMSO, then perform multiple-proportion dilution with PBS, add a monolayer culture plate and continuously culture it to observe cytopathic effects (CPE). Under a conventional microscope, CPE is observed as rough cell surface, strong refractivity, and finally cell shedding. […] Therefore, (+)-blebbistatin can be used as a PRRSV-receptor blocker.

[4] = test system: NMM-II; settings: Straight et al. Science 2003; cited from earlier work
[5] = test system: PRRSV; assay: PRRSV-receptor blocking test (CPE caused by PRRSV in Marc-145 and PAM cells); format: cell-based; set-up: key to Inhibition levels of CPE: “−” means no CPE; “+” means CPE in 25% cells; “++” means CPE in 50% cells; “+++” means CPE in above 75% cells; settings: for Inhibition levels of CPE: PRRSV 10^3TCID50/ml, Marc-145 and PAM cells
Procedure: Marc-145 and PAM cells (10^5 cells/ml) are cultured on DMEM medium (containing 100 U/ml penicillin, 50 μg/ml streptomycin sulphate, 50 μg/ml gentamycin and 10% calf serum) in an incubator under 37 □ and 5% CO2 to form monolayer. Dissolve the NMHC II-A protein, artificially synthesized polypeptides, serum antibodies and (+)-blebbistatin obtained by using the methods of Implementation Examples 1, 2 and 4 in the DMEM medium; after de-germing by filtration, mix with PRRSV strains under different fixation concentrations (10^3TCID50/ml) and incubate an hour, and then add the cells above; perform eight repetitions for each dilution; after adsorption at 37 °C for an hour, remove the mixture, add DMEM medium and culture continuously; and observe CPE daily. The CPE manifestations caused by PRRSV infection include rough cell surface, strong refractivity, and finally cell shedding. The results in Table 5 illustrate the CPE inhibition levels of the NMHC II-A protein, artificially synthesized polypeptides, serum antibodies and (+)-blebbistatin under the each-well concentration of μg, μg, μL and μM in turn. The judgment results of cell CPE are expressed as follows: “−” means no CPE, “+” means CPE in 25% cells, “++” means CPE in 50% cells, and “+++” means CPE in above 75% cells.

[6] = test system: MA-104 and PAM cells; assay: Indirect immunofluorescence assay (IFA), serum antibodies binding to cells; format: cell-based; settings: serum of mice after third immunization with the named antigen
Procedure: Indirect immunofluorescence assay (IFA): After dilution, combine the mouse anti-NMHC II-A protein and anti-polypeptide antibodies after immunization three times with MA-104 and PAM monolayer cells for 0.5-2 hours, then bind the goat anti-mouse IgG testing antibody labeled with fluorescence to the cells.

[7] = dilution 1/40, MA-104 and PAM cells
[8] = dilution 1/80, MA-104 and PAM cells
[9] = dilution 1/160, MA-104 and PAM cells
[10] = dilution 1/320, MA-104 and PAM cells

| Compound | blebbistatin causing CPE or not (Yes or No) ([2]; 1 μM) | blebbistatin causing CPE or not (Yes or No) ([2]; 2 μM) | blebbistatin causing CPE or not (Yes or No) ([2]; 5 μM) | blebbistatin causing CPE or not (Yes or No) ([2]; 10 μM) | blebbistatin causing CPE or not (Yes or No) ([2]; 20 μM) | blebbistatin causing CPE or not (Yes or No) ([2]; 50 μM) | blebbistatin causing CPE or not (Yes or No) ([2]; 100 μM) | effect on cell proliferation and CPE [3] | Inhibition levels of CPE ([5]; 1 μg per well) | Inhibition levels of CPE ([5]; 2 μg per well) | Inhibition levels of CPE ([5]; 5 μg per well) | Inhibition levels of CPE ([5]; 10 μg per well) | Inhibition levels of CPE ([5]; 20 μg per well) | Inhibition levels of CPE ([5]; 50 μg per well) | Inhibition levels of CPE ([5]; 100 μg per well) | inhibition of the cell CPE caused by PRRSV ([5]; at 2 μg-100 μg/well) | Cell-bound serum (with or without fluorescence) [6, 7] | Cell-bound serum (with or without fluorescence) [6, 8] | Cell-bound serum (with or without fluorescence) [6, 9] | Cell-bound serum (with or without fluorescence) [6, 10] | further results |
| --- | --- | --- | --- | --- | --- | --- | --- | --- | --- | --- | --- | --- | --- | --- | --- | --- | --- | --- | --- | --- | --- |
| Cc1ccc2c(c1)C(=O)C1(O)CCN(c3ccccc3)C1=N2 (racemic) [(±)-blebbistatin] | Yes | Yes | Yes | Yes | Yes | Yes | Yes | can inhibit cell proliferation and cause CPE |  |  |  |  |  |  |  |  |  |  |  |  | inhibition of NMM-II ATPase activity [1]: selective inhibitor |
| Cc1ccc2c(c1)C(=O)[C@@]1(O)CCN(c3ccccc3)C1=N2 [(+)-blebbistatin, (R)-(+)-blebbistatin, reference compound] | No | No | No | No | No | No | No | does not inhibit cell proliferation and does not cause CPE |  |  |  |  |  |  |  |  |  |  |  |  | inhibition of NMM-II-dependent cellular division and proliferation [4]: does not inhibit; Inhibition levels of CPE ([5]; 1 μM per well): + (“+” means CPE in 25% cells); Inhibition levels of CPE ([5]; 2 μM per well): −; Inhibition levels of CPE ([5]; 5 μM per well): −; Inhibition levels of CPE ([5]; 10 μM per well): −; Inhibition levels of CPE ([5]; 20 μM per well): −; Inhibition levels of CPE ([5]; 50 μM per well): −; Inhibition levels of CPE ([5]; 100 μM per well): −; inhibition of the cell CPE caused by PRRSV ([5]; at 2 μM-100 μM/well): fully inhibit; blocking of PRRSV strains from infecting cells ([5]; classic American strains (VR-2332), Chinese isolates (Ch-1a), highly pathogenic strains (JXA-1)): block the classic American strains, Chinese isolates and highly pathogenic strains of PRRSV from infecting cells |
| Cc1ccc2c(c1)C(=O)[C@]1(O)CCN(c3ccccc3)C1=N2 [(S)-(−)-blebbistatin] | Yes | Yes | Yes | Yes | Yes | Yes | Yes | can inhibit cell proliferation and cause CPE |  |  |  |  |  |  |  |  |  |  |  |  |  |
| Polypeptide (Seq ID No: 2): NMHC II-A artificial polypeptide, amino-acid sequence Seq ID No: 2 (GAGDGSDEE) |  |  |  |  |  |  |  |  | ++ (“++” means CPE in 50% cells) | − | − | − | − | − | − | fully inhibit | Yes | Yes | Yes | Yes |  |
| Polypeptide (Seq ID No: 3): NMHC II-A artificial polypeptide, amino-acid sequence Seq ID No: 3 (GAGDGSDEEVDGKA) |  |  |  |  |  |  |  |  | ++ (“++” means CPE in 50% cells) | − | − | − | − | − | − | fully inhibit | Yes | Yes | Yes | Yes |  |
| Polypeptide (Seq ID No: 4): NMHC II-A artificial polypeptide, amino-acid sequence Seq ID No: 4 (KADGAEAKPAE) |  |  |  |  |  |  |  |  | ++ (“++” means CPE in 50% cells) | − | − | − | − | − | − | fully inhibit | Yes | Yes | Yes | Yes |  |

Source: patent US20120107932A1, “PRRS-VIRUS RECEPTOR AND ITS INHIBITOR” (priority 2009, published 2012)
